Assay results as given in article PMC8556085, “Antimicrobial and Antioxidant Secondary Metabolites from Trifolium baccarinii Chiov. (Fabaceae) and Their Mechanisms of Antibacterial Action” (BioMed Research International, 2021).
Marks after values point to notes of the source that are not given here.

Columns and labels:
[1] = test system: Staphylococcus aureus ATCC25923; test: Bacteriolytic assay (time-kill kinetic method, OD600); type: cell-based; details: Staphylococcus aureus ATCC25923 suspension, 2xMIC, after 240 min, compared to the 0 time value
Method: (§1) (1) Bacteriolytic Assay. […] Full growth of bacterium in MHB was diluted 100 times and incubated at 37°C to produce an OD600 of 0.8 as a starting inoculum. Sample solutions were added to the starting bacterial suspension to give a final concentration of 2xMIC and incubated at 37°C under agitation at 150 rpm. After the incubation period corresponding to 0, 15, 30, 60, 120, and 240 min, 100 μL was pipetted from each tube and the optical density was recorded at 600 nm using the Biobase UV-Vis spectrophotometer. Corresponding dilutions of test samples were used as blanks. Oxacillin was used as a positive control, and the tubes without an extract/compound served as negative controls. All the measurements were done in triplicate and repeated three times.

[2] = test system: Pseudomonas aeruginosa ATCC27853; test: as above; type: cell-based; details: Pseudomonas aeruginosa suspension, 2xMIC, after 240 min, compared to the 0 time value
Method: as §1

[3] = Gallic acid equivalent antioxidant capacity (GEAC) assay; details: ABTS radical, 420 nm, 240 s; mean ± SD
Outline: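 Purified Sclerotinia sclerotiorum laccase oxidises ABTS in acetate buffer pH 5.0 (100 mM); ABTS●+ read at 420 nm after 240 s. Samples at 10–800 μg/mL (extracts) or 12.5–200 μg/mL (isolated compounds) in assay. Values expressed as gallic acid equivalents from a 0–84 μM gallic acid calibration curve; triplicates, three repeats.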

Staphylococcus aureus = test: Loss of salt tolerance; type: cell-based; details: pretreatment 1/2xMIC, MIC, 2xMIC for 1 h; MHA-NaCl 50, 60, 70 g/L
Method: (2) Loss of Salt Tolerance in Staphylococcus aureus. The ability of Staphylococcus aureus ATCC25923 and MRSA03 cells treated with the methanol extract and compound 5 to grow on Mueller-Hinton agar (MHA) supplemented with NaCl was investigated. In preliminary experiments, untreated suspensions of Staphylococcus aureus were plated on MHA supplemented with NaCl from 40 to 100 g/L. Plates were incubated. After incubation, the resulting colonies were counted. Concentrations of NaCl, 50, 60, and 70 g/L, which modestly compromised the colony-forming abilities of untreated microorganisms, were selected. For further experimentation steps, suspensions of bacteria were prepared as previously described and treated with the MeOH extract or compound 5 at 1/2xMIC, MIC, and 2xMIC. After 1 h incubation, samples were removed, serially diluted, and inoculated onto MHA and MHA-NaCl (50, 60, and 70 g/L). Bacterial culture without a sample was used as a control for each MHA-NaCl plate. Upon incubation, the numbers of CFU per milliliter on each MHA-NaCl plate were compared to those on the MHA plate, and the result was expressed as a percentage.

In the case of “4,7,2′-trihydroxy-4′-methoxyisoflavanol [compound 5]”, the “decline in cell turbidity” value [1] is reported as 99.87%, the “decline in cell turbidity” value [2] is reported as 99.85% and the “Gallic acid equivalent antioxidant capacity (GEAC)” value [3] is reported as 61.05 ± 0.90^h μg/mL. For the same substance, the “number of colony-forming units on NaCl-supplemented media after pretreatment” value (Staphylococcus aureus) was “significant decrease”.
